In assay [1] the test system is MCF7 (breast cancer) cells. Kind of assay: MTT cytotoxicity assay in MCF7 breast cancer cells. In kind it is cell-based. The following applies: 65 hours incubation, read-out: IC50, viability of MCF7 cells from the MTT assay. Here is the method: The cyctoxicity of compounds was determined in MCF 7 (breast cancer) cells.
MCF7 cells were grown in RPMI 1640 media with 10 nM estrogen and 1 mM insulin. Cells were tyripsinized and resuspended at a density of 2.2×10^4 cells per mL. 500 μL of this suspension was added to each well in a 24 well plate. The plates were incubated at 37° C. and 5% CO2 atmosphere overnight. The media was changed, and plates were dosed in triplicate with compound dissolved in DMSO. Cells were dosed not to exceed 0.5% DMSO in solution. Cells were dosed to a final concentration of 100, 50, 25, 12.5, and 6.25 μM of compound. 5-Flurouracil was used as a positive control and dosed in the same manner. Plates were incubated for 65 hours prior to the addition of MTT solution. 500 μL of a 193 μg/mL MTT and media solution was added to each well. Plates were incubated for 3 hours. The MTT solution was removed and 500 μL of DMSO was added to each well. Cells were imaged using GS 800 Bio Rad scanner and Quality One Software. IC50 curves were determined by plotting viability verses compound concentration. Kaleidagraph software was used to calculate the R value for each logarithmic curve fitting.
(In general: Tetrazolium assays rely on reduction of a dye to a coloured formazan, in cell work by metabolically active cells.)

The subject of a further assay is CNS SNB-75. In words: NCI in vitro cell line screen (SRB), single dose. In kind it is cell-based, human. The note with it: CNS SNB-75, single dose of 10 μM. The method, then: (§1) Four of the preliminary lead compounds: three nucleosides (JT-1-10, VAL-1-15/42, VAL-1-16) and one nucleobase (KB-1-17)—were submitted to the National Cancer Institute for the in vitro cell line screening project (IVCLSP). The screening consisted in the evaluation of this compound against the 60 cell lines at a single dose of 10 μM.
(§2) The human tumor cell lines of the cancer screening panel are grown in RPMI 1640 medium containing 5% fetal bovine serum and 2 mM L-glutamine. For a typical screening experiment, cells are inoculated into 96 well microtiter plates in 100 μL at plating densities ranging from 5,000 to 40,000 cells/well depending on the doubling time of individual cell lines. After cell inoculation, the microtiter plates are incubated at 37° C., 5% CO2, 95% air and 100% relative humidity for 24 h prior to addition of experimental drugs.
(§3) After 24 h, two plates of each cell line are fixed in situ with TCA, to represent a measurement of the cell population for each cell line at the time of drug addition (Tz). Experimental drugs are solubilized in dimethyl sulfoxide at 400-fold the desired final maximum test concentration and stored frozen prior to use. At the time of drug addition, an aliquot of frozen concentrate is thawed and diluted to twice the desired final maximum test concentration with complete medium containing 50 μg/ml gentamicin. Additional four, 10-fold or ½ log serial dilutions are made to provide a total of five drug concentrations plus control. Aliquots of 100 μl of these different drug dilutions are added to the appropriate microtiter wells already containing 100 μl of medium, resulting in the required final drug concentrations.
(§4) Following drug addition, the plates are incubated for an additional 48 h at 37° C., 5% CO2, 95% air, and 100% relative humidity. For adherent cells, the assay is terminated by the addition of cold TCA. Cells are fixed in situ by the gentle addition of 50 μl of cold 50% (w/v) TCA (final concentration, 10% TCA) and incubated for 60 minutes at 4° C. The supernatant is discarded, and the plates are washed five times with tap water and air dried. Sulforhodamine B (SRB) solution (100 μl) at 0.4% (w/v) in 1% acetic acid is added to each well, and plates are incubated for 10 minutes at room temperature. After staining, unbound dye is removed by washing five times with 1% acetic acid and the plates are air dried. Bound stain is subsequently solubilized with 10 mM trizma base, and the absorbance is read on an automated plate reader at a wavelength of 515 nm. For suspension cells, the methodology is the same except that the assay is terminated by fixing settled cells at the bottom of the wells by gently adding 50 μl of 80% TCA (final concentration, 16% TCA). Using the seven absorbance measurements [time zero, (Tz), control growth, (C), and test growth in the presence of drug at the five concentration levels (Ti)], the percentage growth is calculated at each of the drug concentrations levels. Percentage growth inhibition is calculated as:
(§5) [(Ti−Tz)/(C−Tz)]×100 for concentrations for which Ti>/=Tz
(§6) [(Ti−Tz)/Tz]×100 for concentrations for which Ti<Tz.
(§7) Three dose response parameters are calculated for each experimental agent. Growth inhibition of 50% (GI50) is calculated from [(Ti−Tz)/(C−Tz)]×100=50, which is the drug concentration resulting in a 50% reduction in the net protein increase (as measured by SRB staining) in control cells during the drug incubation. The drug concentration resulting in total growth inhibition (TGI) is calculated from Ti=Tz. The LC50 (concentration of drug resulting in a 50% reduction in the measured protein at the end of the drug treatment as compared to that at the beginning) indicating a net loss of cells following treatment is calculated from [(Ti−Tz)/Tz]×100=−50. […]

The subject of assay [2] is Non-Small Cell Lung HOP-92. Kind of assay: NCI in vitro cell line screen (SRB), single dose. In kind it is cell-based, human. The note with it: Non-Small Cell Lung HOP-92, single dose of 10 μM. Here is the method:
as §1, §2, §3, §4, §5, §6, §7

A further assay concerns Prostate PC-3. In words: NCI in vitro cell line screen (SRB), single dose. In kind it is cell-based, human. The following applies: Prostate PC-3, single dose of 10 μM. Here is the method: as §1, §2, §3, §4, §5, §6, §7
The subject of the next assay is Renal CAKI-1. Kind of assay: NCI in vitro cell line screen (SRB), single dose. The note with it: Renal CAKI-1, single dose of 10 μM. In kind it is cell-based, human. Here is the method:
as §1, §2, §3, §4, §5, §6, §7

Another assay has as its system Melanoma UACC-62. In words: NCI in vitro cell line screen (SRB), single dose. In kind it is cell-based, human. The following applies: Melanoma UACC-62, single dose of 10 μM. The method, then:
as §1, §2, §3, §4, §5, §6, §7

The next assay relates to Renal A498. Kind of assay: NCI in vitro cell line screen (SRB), single dose. The following applies: Renal A498, single dose of 10 μM. In kind it is cell-based, human. Here is the method:
as §1, §2, §3, §4, §5, §6, §7

The next assay deals with Breast MSF7. Kind of assay: NCI in vitro cell line screen (SRB), single dose. In kind it is cell-based, human. The following applies: Breast MSF7, single dose of 10 μM. The method, then: as §1, §2, §3, §4, §5, §6, §7
The test system of the next assay is Leukemia RPMI-8226. In words: NCI in vitro cell line screen (SRB), single dose. In kind it is cell-based, human. The following applies: Leukemia RPMI-8226, single dose of 10 μM. Here is the method:
as §1, §2, §3, §4, §5, §6, §7

Assay [3] relates to Non-Small Cell Lung NCI-H522. Kind of assay: NCI in vitro cell line screen (SRB), single dose. In kind it is cell-based, human. The note with it: Non-Small Cell Lung NCI-H522, single dose of 10 μM. The method, then: as §1, §2, §3, §4, §5, §6, §7
The next assay has as its system Renal TK-10. In words: NCI in vitro cell line screen (SRB), single dose. In kind it is cell-based, human. The following applies: Renal TK-10, single dose of 10 μM. Here is the method: as §1, §2, §3, §4, §5, §6, §7
The subject of a further assay is Renal UO-31. Kind of assay: NCI in vitro cell line screen (SRB), single dose. In kind it is cell-based, human. The note with it: Renal UO-31, single dose of 10 μM. Here is the method: as §1, §2, §3, §4, §5, §6, §7

SMILES strings stand for the structures. pIC50: −log10 of the molar value.

We go through three compounds from US20160101188A1, “NOVEL NANOCARRIER DELIVERED CANCER CHEMOTHERAPEUTIC AGENTS” (UNIVERSITY OF CINCINNATI, priority 2013, published 2016).

One may read the pIC50 as −log10 of the IC50, conventionally taken in molar units. `CC(C)(C)C(OCc1cn([C@H]2C[C@H](O)[C@@H](CO)O2)c(=O)[nH]c1=O)c1ccccc1[N+](=O)[O-]` (stereo partly shown) [VAL-1-15/27/42, 5-[1-(2-nitrophenyl)-2,2-(dimethyl)propoxymethyl]-2′-deoxyuridine]: the pIC50 in assay [1] is 4.38. Also, the “Growth Percent” value in the assay with CNS SNB-75 is on record as 84%; in assay [2] it was 73%; in the assay with Prostate PC-3, 91%; in the assay with Renal CAKI-1, 88%.
With `CC(C)(C)CC(OCc1cn([C@H]2C[C@H](O)[C@@H](CO)O2)c(=O)[nH]c1=O)c1ccccc1` (stereo partly shown) [VAL-1-16, 5-[1-(phenyl)-3,3-(dimethyl)-1-butoxymethyl]-2′-deoxyuridine], the entries for the “Growth Percent” value in the assay on CNS SNB-75, in the assay on Melanoma UACC-62 and in the assay on Renal A498 were 92%, 90% and 92%, respectively.
With `CC(C)(C)C(OCc1cn([C@H]2C[C@H](O)[C@@H](CO)O2)c(=O)[nH]c1=O)c1ccccc1` (stereo partly shown) [JT-1-10, 5-[1-(phenyl)-2,2-(dimethyl)-1-propoxymethyl]-2′-deoxyuridine], in assay [1], the pIC50 was 3.73. Moreover, the “Growth Percent” value in the assay on Breast MSF7 came out at 87%; in the assay on CNS SNB-75, 65%; in the assay on Leukemia RPMI-8226, 90%; in assay [2] it was 89%; in [3] it was 91%; with Renal TK-10, 84%. The “Growth Percent” value in the assay with Renal UO-31 came out at 88%.
